Data from US10441663B2, “Methods for treating cancer” (Bicycle Therapeutics Limited, priority 2016, dated 2019).
*1 amine or outer side, *2 acyl side, *3 side chain or, on linkers, in order; H or OH if unused. Where a SMILES comes first, the peptide text is derived from it. Bridges are numbered along the chain shown (N, C = ends). [ ]: non-standard residue; d: D form. The star is where a group is joined. X1 = COc1cc2cc(c1Cl)N(C)C(=O)C[C@H](OC(=O)[C@H](C)N(C)C(=O)CCSSC(C)CCC(=O)*)[C@]1(C)O[C@H]1[C@H](C)[C@@H]1C[C@@](O)(NC(=O)O1)[C@H](OC)/C=C/C=C(\C)C2; 1Nal = N[C@@H](Cc1cccc2ccccc12)C(=O)O; TBMB = c1c(C[*:1])cc(C[*:3])cc1C[*:2]; Tle = CC(C)(C)[C@H](N)C(=O)O; βAla = NCCC(=O)O; Sar = CNCC(=O)O

Tests used:
[1] = system: LU-01-0251 non-small-cell lung carcinoma (NSCLC) PDX model; test: Efficacy in LU-01-0251 NSCLC PDX model (high MT1-expressing, docetaxel sensitive); assay type: in vivo, Balb/C nude mice
From the text: The objective of the project is to evaluate the in vivo therapeutic efficacy of test articles in the LU-01-0251 non-small-cell lung carcinoma (NSCLC) PDX model. LU-01-0251 is a high MT1-expressing NSCLC that is docetaxel sensitive.
Each mouse was inoculated subcutaneously at the right flank with certain kind of tumor fragment (30 mm3) for tumor development. The treatments started when the average tumor volume reaches approximately 150-200 mm^3. The test article administration and the animal numbers in each group are shown in Table 40 which details the experimental design.
Treatment was given until the control tumors reached an average of 1000 mm^3.
Before commencement of treatment all animals will be weighed and the tumor volumes will be measured. Since the tumor volume can affect the effectiveness of any given treatment, mice will be assigned into groups using randomized block design based upon their tumor volumes.
The protocol and any amendment(s) or procedures involving the care and use of animals in this study will be reviewed and approved prior to conduct. […] At the time of routine monitoring, the animals will be checked for any effects of tumor growth and treatments on normal behavior such as mobility, food and water consumption, body weight gain/loss (body weights will be measured twice weekly), eye/hair matting and any other abnormal effect. Death and observed clinical signs will be recorded on the basis of the numbers of animals within each subset.
The major endpoint is to see if the tumor growth can be delayed or mice can be cured. Tumor sizes will be measured twice weekly in two dimensions using a caliper and the volume will be expressed in mm^3 using the formula: V=0.5 a×b^2 where a and b are the long and short diameters of the tumor, respectively. […] T-C is calculated with T as the median time (in days) required for the treatment group tumors to reach a predetermined size (e.g., 1.000 mm^3), and C is the median time (in days) for the control group tumors to reach the same size. […]
TGI is calculated for each group using the formula. […]

LU-01-0486 PDX model = assay type: in vivo, Mus Musculus; settings: 3 or 10 mg/kg
Description: The objective of this study was to evaluate the in vivo anti-tumor efficacy of BT1718 in the treatment of MT1-MMP low-expressing LU-01-0486 PDX model in female Balb/C nude mice
Each mouse was inoculated subcutaneously at the right flank with LU-01-0486 of tumor fragment (30 mm^3) for tumor development. The treatments was started when the average tumor volume reaches 164 mm^3.
All the procedures related to animal handling, care and the treatment in the study were performed following the guidance of the Association for Assessment and Accreditation of Laboratory Animal Care (AAALAC). At the time of routine monitoring, the animals were daily checked for any effects of tumor growth and treatments on normal behavior such as mobility, food and water consumption (by looking only), body weight gain/loss (body weights were measured twice weekly), eye/hair matting and any other abnormal effect as stated in the protocol. Death and observed clinical signs were recorded on the basis of the numbers of animals within each subset.
The major endpoint was to see if the tumor growth could be delayed or mice could be cured. Tumor size was measured two times weekly in two dimensions using a caliper, and the volume was expressed in mm^3 using the formula: V=0.5 a×b^2 where a and b are the long and short diameters of the tumor, respectively. The tumor size was then used for calculations of T/C value. […]
TGI was calculated for each group using the formula: TGI (%)=[1−(Ti−T0)/(Vi−V0)]×100; Ti is the average tumor volume of a treatment group on a given day, T0 is the average tumor volume of the treatment group on the day of treatment start, Vi is the average tumor volume of the vehicle control group on the same day with Ti, and V0 is the average tumor volume of the vehicle group on the day of treatment start. […]
A one-way ANOVA was performed to compare tumor volume among groups, and when a significant F-statistics (a ratio of treatment variance to the error variance) was obtained, comparisons between groups were carried out with Games-Howell test. All data were analyzed using Prism. […]

For COc1cc2cc(c1Cl)N(C)C(=O)C[C@H](OC(=O)[C@H](C)N(C)C(=O)CCSSC(C)CCC(=O)NCCC(=O)N(C)CC(=O)N(C)CC(=O)N(C)CC(=O)N(C)CC(=O)N(C)CC(=O)N(C)CC(=O)N(C)CC(=O)N(C)CC(=O)N(C)CC(=O)N(C)CC(=O)N[C@@H](C)C(=O)N[C@H]1CSCc3cc4cc(c3)CSC[C@H](NC(=O)[C@@H](C)NC(=O)[C@H](Cc3cccc5ccccc35)NC(=O)[C@H](CCC(=O)O)NC(=O)[C@H](CC(N)=O)NC(=O)[C@@H](C)NC1=O)C(=O)N[C@@H](CCC(=O)O)C(=O)N[C@@H](CC(=O)O)C(=O)N[C@@H](Cc1ccccc1)C(=O)N[C@@H](Cc1ccc(O)cc1)C(=O)N[C@@H](CC(=O)O)C(=O)N[C@@H](C(C)(C)C)C(=O)N[C@H](C(N)=O)CSC4)[C@]1(C)O[C@H]1[C@H](C)[C@@H]1C[C@@](O)(NC(=O)O1)[C@H](OC)/C=C/C=C(\C)C2 (some centres unmarked) [BT1718] ({X1-βAla}-[Sar][Sar][Sar][Sar][Sar][Sar][Sar][Sar][Sar][Sar]AC[dA]NE[1Nal][dA]CEDFYD[Tle]C-NH2; linker 12-18-25 via TBMB (inferred)), the tumor response ([1]; 3 mg/kg biw) was “tumor stasis”, the “relapse after cessation of dosing” value ([1]; 10 mg/kg biw) was “lack of relapse” and the tumor response ([1]; 10 mg/kg biw) was “tumor eradication”. The body weight effect (LU-01-0486 PDX model) was “no significant effect on body weight” and the tumor growth (LU-01-0486 PDX model) was “limited inhibition of tumor growth”.
